Measurements taken from publication PMC10382259, “Efficacy and Safety of Elamipretide in Individuals With Primary Mitochondrial Myopathy” (Neurology, 2023).
“Also recorded” adds a separate entry of the source.

How the values were obtained:
[1] = tested on: participants with primary mitochondrial myopathy (PMM); assay: Safety and tolerability (adverse events), MMPOWER-3; type: in vivo, human
Description: Safety and tolerability of elamipretide at a dose of 40 mg/d SC were assessed through recording of adverse events (AEs), ascertained through self-report, vital signs, physical examination, ECGs, and clinical laboratory evaluations. Adverse events were assessed for severity and relationship to study medication throughout the 24-week study. Safety measures were assessed during screening, baseline and weeks 4, 12, and 24.
(§1) Efficacy was assessed in the intention-to-treat (ITT) population, defined as all participants who received at least 1 dose of investigational medication, and the per-protocol (PP) population, which included all ITT participants without defined protocol violations/deviations identified per blinded data review before database lock. These protocol violations/deviations included not meeting inclusion/exclusion criteria or having a selected major protocol deviation deemed to potentially affect efficacy findings; not completing the study; not receiving investigational treatment within 2 days before the week 24 visit; having <80% compliance to investigational product; and not completing the study. Safety was assessed in the safety population, defined as all participants who received at least 1 dose of investigational medication.

[2] = tested on: participants with primary mitochondrial myopathy (PMM); assay: 6-minute walk test (6MWT), MMPOWER-3 phase 3 trial; type: in vivo, human
Description: (§2) MMPOWER-3 was a 24-week , randomized, double-blind, parallel-group, placebo-controlled clinical trial for adults with PMM conducted at 27 clinical research centers in 7 countries (Canada, Denmark, England, Germany, Hungary, Italy, and the United States).
(§3) After screening (7–28 days), eligible participants were randomized in a 1:1 ratio to receive either 24-weeks of once-daily SC dosing of 40 mg of elamipretide or placebo. Study drug or placebo was self-administered subcutaneously by trained participants or their caregivers, at rotating sites around 4 quadrants of the abdomen or the thighs. Treatment began at the baseline visit with assessments at weeks 4, 12, and 24.
(§4) Coprimary endpoints evaluated the effect of elamipretide for 24 weeks including the distance walked (in meters) on the 6MWT and the total fatigue score on the Primary Mitochondrial Myopathy Symptom Assessment (PMMSA), previously described in detail.[31] The full PMMSA assesses the severity of 10 of the most common symptoms of PMM using the following 4-point scale (not at all[1] to severe; described later). PMMSA total fatigue score (TFS) focuses on myopathic symptoms most commonly associated with PMM (severity of tiredness and muscle weakness at rest and during activities, as described by participants).
as §1
(§5) Primary and secondary efficacy outcomes were assessed as the change from baseline to each on-treatment time point with the primary time point being end of treatment (week 24). Analyses of continuous endpoints were conducted using a mixed-model repeated measures approach, with fixed effects for treatment, visit, the treatment-by-visit interaction, and participant as a random effect. The baseline value and a baseline-by-visit interaction for the endpoint were included as covariates. A family-wise alpha level of 0.05 was maintained for the primary endpoints, using Hochberg procedure at the primary time point of 24 weeks. […] If not, the endpoint with the smaller p value of the 2 was considered statistically significant if the p value was ≤0.025 (2-sided ).
(§6) Given the extensive genetic heterogeneity of the study population, an exploratory analysis of genetic subgroups by genomic alteration (mtDNA and nDNA) was performed using the same methods as described for the primary efficacy endpoints earlier (ITT population using similar mixed-model repeated measure [MMRM] models).
Because of a potential data entry error, which was later identified in post hoc data analysis, 3 participants were misclassified in the clinical study report as having a pathogenic mtDNA variant. […] Accordingly, these participants were moved from the mtDNA group into the nDNA cohort for the included genetic alteration analyses. 6MWT for 1 participant at week 24 was deemed unusable because the participant inadvertently received walking assistance and was therefore not included in the 6MWT analyses. Study protocol and statistical analysis plan were published on ClinicalTrials.gov updated on January 24th 2022 (NCT03323749).[32]

[3] = Population pharmacokinetic and exposure-response analysis (NONMEM), MMPOWER-3; type: in vivo, human
Description: The PK population included 106 participants randomized and treated with elamipretide, with at least 1 PK sample taken during their participation. PK modeling for elamipretide and its metabolites, M1 and M2, were performed using NONMEM computer software. Covariates, such as age, genotype, weight, height, lean body mass, body mass index, liver function tests, serum creatinine, and renal function (as described by estimated glomerular filtration rate [eGFR]) were analyzed. The exposure-response analysis examined response based on the 6MWT as a function of steady-state exposure to elamipretide and its metabolites.

[4] = tested on: participants with primary mitochondrial myopathy (PMM); assay: Primary Mitochondrial Myopathy Symptom Assessment (PMMSA) total fatigue score, MMPOWER-3; type: in vivo, human
Description: as §2, §3, §4
The PMMSA was performed during screening, baseline, and daily throughout the 24-week study period. Other efficacy endpoints were performed at screening, baseline, and at weeks 4, 12, and 24 of randomized treatment.
as §1, §5, §6

[5] = tested on: participants with primary mitochondrial myopathy (PMM); assay: MMPOWER-3 overall outcome on primary and secondary efficacy endpoints; type: in vivo, human; details: 40 mg/d SC, 24 weeks, vs placebo
Source text: as §4, with “participants). […]” for “participants).”
Other secondary endpoints included the patient global impression (PGI) and clinician global impression (CGI) of PMM symptoms. PGI and CGI assess patient and clinician overall assessment of the severity of patients' symptoms related to PMM on a 5-point scaled question scored 0 to 4 (0 = none, 1 = mild, 2 = moderate, 3 = severe, and 4 = very Severe) and changes to their symptoms on a 7-point scale scored −3 to 3 (−3 = very much worse, −2 = moderately worse, −1 = a little worse, 0 = no change, 1 = a little better, 2 = moderately better, and 3 = very much better).
Primary and secondary efficacy outcomes were assessed as the change from baseline to each on-treatment time point with the primary time point being end of treatment (week 24). […]

[6] = cited from earlier work
Source text: Elamipretide is an investigational mitochondrial-targeting agent in development for treating patients with a variety of mitochondrial diseases.[10][-][13] Elamipretide is a water-soluble, aromatic, cationic, mitochondria-targeting tetrapeptide that readily penetrates and transiently localizes to the inner mitochondrial membrane where it associates with cardiolipin to improve membrane stability and restore supercomplex formation, thereby enhancing adenosine triphosphate synthesis in several organs including the heart, kidney, neurons, and skeletal muscle, and reduce reactive oxygen species (ROS ...

[7] = 40 mg/d SC, 24 weeks, listed as Elamipretide
[8] = AEs reported by ≥ 5% of participants in either group, n = 109, 40 mg/d SC, 24 weeks
[9] = safety population n = 109, 40 mg/d SC, 24 weeks

elamipretide
AE with an outcome of death or hospitalization ([1]; 40 mg/d SC, 24 weeks): No participants | Severity (intensity) of most adverse events ([1]; 40 mg/d SC, 24 weeks): mild or moderate | Tolerability of subcutaneous elamipretide ([1]; 40 mg/d SC, 24 weeks): generally well tolerated | Severity (intensity) of most adverse events [1, 7]: mild to moderate | Tolerability of subcutaneous elamipretide [1, 7]: well-tolerated | Diarrhea [1, 8]: 3 (2.8) n (%) | Dizziness [1, 8]: 6 (5.5) n (%) | Eosinophil count increased [1, 8]: 7 (6.4) n (%) | Fall [1, 8]: 6 (5.5) n (%) | Headache [1, 8]: 8 (7.3) n (%) | Injection site bruising [1, 8]: 9 (8.3) n (%) | Injection site erythema [1, 8]: 94 (86.2) n (%) | Injection site hematoma [1, 8]: 0 n (%) | Injection site hemorrhage [1, 8]: 7 (6.4) n (%) | Injection site induration [1, 8]: 31 (28.4) n (%) | Injection site mass [1, 8]: 9 (8.3) n (%) | Injection site nodule [1, 8]: 11 (10.1) n (%) | Injection site pain [1, 8]: 43 (39.4) n (%) | Injection site pruritus [1, 8]: 82 (75.2) n (%) | Injection site swelling [1, 8]: 42 (38.5) n (%) | Injection site urticaria [1, 8]: 14 (12.8) n (%) | Nasopharyngitis [1, 8]: 8 (7.3) n (%) | Nausea [1, 8]: 5 (4.6) n (%) | Upper respiratory tract infection [1, 8]: 7 (6.4) n (%) | AEs reported as treatment-related AEs ([1]; elamipretide group, 40 mg/d SC, 24 weeks): 97.2% | Percentage of participants with serious adverse events (SAEs) ([1]; n = 5/109, not deemed to be treatment related): 4.6% | Incidence of AEs leading to discontinuation ([1]; n = 8/109): 7.3% | Percentage of participants reporting AEs during the treatment period ([1]; n = 107/109, 40 mg/d SC, 24 weeks): 98.2% | Any AE [1, 9]: 107 (98.2) n (%) | Any AE leading to treatment discontinuation [1, 9]: 8 (7.3) n (%) | Any AE leading to treatment interruption [1, 9]: 13 (11.9) n (%) | Any SAE [1, 9]: 5 (4.6) n (%) | Any treatment-related AE [1, 9]: 106 (97.2) n (%) | Any treatment-related SAE [1, 9]: 0 n (%) | Death [1, 9]: 0 n (%) | Difference between elamipretide and placebo in LS mean change from baseline in 6MWT distance at week 24 ([2]; ITT population, 40 mg/d SC, 24 weeks, 95% CI −18.7 to 12.3, p = 0.69): −3.2 meters | Least squares mean (SE) of change from baseline in distance walked on 6MWT at week 24 ([2]; ITT population, elamipretide 40 mg/d SC once daily, 24 weeks, MMRM, SEM): 14.1 (±5.7) meters | Difference between elamipretide and placebo in change from baseline in 6MWT distance at week 24, per-protocol analysis ([2]; PP population, 40 mg/d SC, 24 weeks, 95% CI −16.9 to 12.5, p = 0.77): −2.2 meters | LS mean (SE) of change from baseline in 6MWT distance at week 24, mtDNA alteration subgroup ([2]; participants with mtDNA alteration (ITT), elamipretide n = 74, 40 mg/d SC, 24 weeks, SEM): 14.0 (±6.1) meters | Between-group difference in change from baseline in 6MWT distance at week 24, mtDNA alteration subgroup ([2]; participants with mtDNA alteration, favoring placebo, 95% CI −28.1 to 6.1, p = 0.21): −11.0 meters | LS mean (SE) change from baseline in 6MWT distance at week 24, nDNA alteration subgroup ([2]; participants with nDNA alteration (post hoc analysis), elamipretide n = 29, 40 mg/d SC, 24 weeks, SEM): 25.5 (±8.0) meters | Between-group difference in change from baseline in 6MWT distance at week 24, nDNA alteration subgroup ([2]; participants with nDNA alteration (post hoc), favoring elamipretide, 95% CI 3.1–47.3, p = 0.03): 25.2 meters | Covariate influence on systemic or absorption PK parameters (population PK model) ([3]; PK population 106 participants, NONMEM, systemic parameters scaled allometrically): No covariates influenced the systemic or absorption parameters | Exposure-response: 6MWT change and fractional change at week 24 vs day 1 as a function of elamipretide steady state area under the curve ([3]; participants with an nDNA alteration, p = 0.0262 and p = 0.0345, respectively): increase; also recorded: statistically significant correlation | Difference between elamipretide and placebo in LS mean change from baseline to week 24 on PMMSA total fatigue score ([4]; ITT population, 40 mg/d SC, 24 weeks, 95% CI −0.69 to 0.54, p = 0.81): −0.07 | LS mean (SE) of change from baseline to week 24 on the PMMSA total fatigue score ([4]; ITT population, 40 mg/d SC, 24 weeks, MMRM, SEM): −1.13 (±0.22) | Difference between elamipretide and placebo in change from baseline to week 24 on PMMSA total fatigue score, per-protocol analysis ([4]; PP population, 40 mg/d SC, 24 weeks, 95% CI −0.54 to 0.72, p = 0.78): 0.09 | LS mean (SE) of change from baseline at week 24 on PMMSA TFS, mtDNA alteration subgroup ([4]; participants with mtDNA alteration, 40 mg/d SC, 24 weeks, SEM): −1.3 (±0.2424) | Between-group difference in change from baseline at week 24 on PMMSA TFS, mtDNA alteration subgroup ([4]; participants with mtDNA alteration, 95% CI −0.9 to 0.5, p = 0.55): −0.21 | LS mean (SE) of change from baseline at week 24 on PMMSA TFS, nDNA alteration subgroup ([4]; participants with nDNA alteration (post hoc analysis), 40 mg/d SC, 24 weeks, SEM): −0.45 (±0.25) | Between-group difference in change from baseline at week 24 on PMMSA TFS, nDNA alteration subgroup ([4]; participants with nDNA alteration (post hoc), p = 0.93): 0.03 | Overall outcome on efficacy endpoints (6MWT, PMMSA TFS, secondary endpoints) versus placebo [5]: did not improve outcomes in the 6MWT and PMMSA TFS; also recorded: did not meet either primary or secondary endpoints; also recorded: did not demonstrate statistically significant changes on the primary endpoints | Solubility in water (description) [6]: water-soluble
